Reference: patent US20240343747A1, “Heteroaryl compounds as inhibitors of TYK2, composition and application thereof” (Accro Bioscience (HK) Limited, priority 2021, published 2024)
pIC50: −log10 of the molar value. Values after ≈ are worked out from the molar mass of the structure shown.

Legend:
Kinetic solubility test = assay type: physicochemical; conditions: for kinetic solubility (in words): conclusion from Table 6; for solubility kinetic at 2 h: phosphate buffer, aqueous buffer, kinetic from dmso stock, 50 mM PB pH 7.4
Procedure: • 1. 10 μL of test and control compounds (10 mM) in DMSO was added into lower chambers of Whatman mini-uniprep vials, respectively. • 2. Added 490 μL of 50 mM PB (pH 7.4) into lower chambers of the Whatman mini-uniprep vials, respectively. • 3. […] Shook the mini-uniprep vials on a Barnstead shaker for 2 hours at room temperature at the speed of 800 rpm. • 5. Centrifuged 20 minutes (e.g. 4000 rpm) • 6. Compressed mini-unipreps to prepare the filtrates for injection into UPLC system to calculate the concentration with standard curve.

[1] = Plasma protein binding test, rat; assay type: in vitro ADME
Procedure: • 1. Test compound and control compound were dissolved in dimethyl sulfoxide (DMSO) to achieve 10 mM stock solutions. DMSO working solutions were prepared at 400 μM. To prepare the loading matrix, compound working solutions (5 μL) were added in a 1:200 ratio to blank matrix (995 μL), and mixed thoroughly. • 2. To prepare the time zero (TO) samples to be used for recovery determination, 50 μL aliquots of loading matrix were transferred in triplicate to the sample collection plate. The samples were immediately matched with opposite blank buffer to obtain a final volume of 100 μL of 1:1 matrix/dialysis buffer (v/v) in each well. 500 μL of stop solution were added to these TO samples. They were then stored at 2-8° C. pending further processes along with other post-dialysis samples. • 3. To load the dialysis device, an aliquot of 150 μL of the loading matrix was transferred to the donor side of each dialysis well in triplicate, and 150 μL of the dialysis buffer was loaded to the receiver side of the well. The dialysis plate was placed in a humidified incubator at 37° C. with 5% CO2 on a shaking platform that rotated slowly (about 100 rpm) for 4 hours • 4. At the end of the dialysis, aliquots of 50 μL of samples were taken from both the buffer side and the matrix side of the dialysis device. […]
The % Unbound and % Bound were calculated using the following equations: […]

[2] = test system: production of CXCL-10 stimulated by IFNα in PBMC; assay: ELISA: production of CXCL-10 stimulated by IFNα in PBMC; assay type: cell-based; conditions: CXCL-10 production stimulated by IFNα in PBMC; for pIC50: ELISA
Procedure: • 1. Soak plate: Add 300 μL 1×washing solution and let stand for 30 seconds. After discarding the washing solution, dry the microporous plate on absorbent paper. • 2. Add standard: Add 100 μL of 2-fold standard to standard well. Add 100 μL standard dilution (serum/plasma sample) or culture medium (cell culture supernatant sample) to blank well. • 3. Add sample: Serum/plasma: Add 50 μL 1×assay buffer and 50 μL sample to sample well. Cell culture supernatant: Add 100 μL cell culture supernatant to sample well. • 4. Add detection antibody: Add 50 μL diluted detection antibody (1:100 diluted) to each well. Make sure steps 4, 5 and 6 are added continuously without interruption. The sampling process was completed within 15 minutes. • 5. Incubation: Use sealing plate film to seal the plate. shake at 300 rpm and incubate for 2 hours at room temperature. • 6. Washing: Discard the liquid, add 300 μL of washing solution and wash the plate 6 times. pat dry on blotting paper after each wash. To obtain the desired experimental performance, the residual liquid must be completely removed. • 7. Enzyme addition: Add 100 μL diluted horseradish peroxidase labeled streptavidin to each well (1:100 diluted). • 8. Incubation: Seal the plate with a new sealing film. shake at 300 rpm and incubate at room temperature for 45 minutes. • 9. Washing. Repeat step […]. • 10. Add substrate for color development: Add 100 μL of color development substrate TMB to each well, keep away from light, and incubate at room temperature for 5-30 minutes. • 11. Add Stop Solution: Add 100 μL stop solution to each well. The color changed from blue to yellow. If the color appears green or the color changes unevenly, gently tap the frame of the plate to mix well. • 12. Assay readout: Within 30 minutes, perform dual wavelength detection using a microplate reader to measure the OD at the absorption maximum at 450 nm and reference wavelengths at 570 nm or 630 nm. The calibrated OD value is the measured value at 450 nm minus the measured value at 570 nm or 630 nm.

Row | kinetic solubility (in words) (Kinetic solubility test) | solubility kinetic at 2 h (Kinetic solubility test) [µM] | fraction unbound at 4 h, 2 μM [1] | SMILES | activity compared with BMS986165 [2] | pIC50 [2]
1 | good | 52.4 (≈ 26 µg/mL) | 0.055 | CCC(=O)c1cnc(NC(=O)C2CC2)cc1Nc1cccc(-c2cc(P(C)(C)=O)n(C)n2)c1OC [Compound B2, N-(4-((3-(5-(dimethylphosphoryl)-1-methyl-1H-pyrazol-3-yl)-2-methoxyphenyl)amino)-5-propionylpyridin-2-yl)cyclopropanecarboxamide] |  | 
2 | good | 91.9 (≈ 45.8 µg/mL) |  | [2H]C([2H])([2H])n1nc(-c2cccc(Nc3cc(NC(=O)C4CC4)ncc3C(=O)CC)c2OC)cc1P(C)(C)=O [Compound B22] |  | 
3 |  |  |  | CCC(=O)c1cnc(NC(=O)C2CC2)cc1Nc1cccc(-c2cc(P(=O)(C3CC3)C3CC3)n(C)n2)c1OC [Compound B37, N-(4-((3-(5-(dicyclopropylphosphoryl)-1-methyl-1H-pyrazol-3-yl)-2-methoxyphenyl)amino)-5-propionylpyridin-2-yl)cyclopropanecarboxamide] | more active than BMS986165 | 7.55
4 | low to moderate | 11.3 (≈ 6.24 µg/mL) | 0.045 | [2H]C([2H])([2H])NC(=O)c1nnc(NC(=O)C2CC2)cc1Nc1cccc(-c2cc(P(=O)(C3CC3)C3CC3)n(C)n2)c1OC [Compound B41, 6-(cyclopropanecarboxamido)-4-((3-(5-(dicyclopropylphosphoryl)-1-methyl-1H-pyrazol-3-yl)-2-methoxyphenyl)amino)-N-(methyl-d3)pyridazine-3-carboxamide] |  | 7.40
